According to US10182981B2, “Method of regulating a skin condition” (priority 2015, dated 2019):

System: IL-18
Experiment: Evaluation of skin sensitization potential (IL-18 production in HEK)
Format: cell-based, human
Details: HEK lysate, 16 h
From the text: It is possible for a material to not be cytotoxic, and yet be unsafe due to provoking an allergic reaction upon skin contact. Typically, initial exposure to an allergen sensitizes the immune system, and following exposures cause an allergic response. Recent progress in understanding the mechanisms of skin sensitization identified interleukin-18 (IL-18) production in normal human epidermal keratinocytes (HEK) as a useful biomarker for skin contact sensitization (Corsini, et al., “Use of IL-18 Production In a Human Keratinocyte Cell Line to Discriminate Contact Sensitizers from Irritants and Low Molecular Weight Respiratory Allergens.” Toxicol In Vitro. 2009 August; 23(5):789-96; Teunis, et al., “Transfer of a Two-tiered Keratinocyte Assay: IL-18 Production by NCTC2544 to Determine the Skin Sensitizing Capacity and Epidermal Equivalent Assay to Determine Sensitizer Potency.” Toxicol In Vitro. 2013 April; 27(3):1135-50). […] Thus, IL-18 production in HEK was evaluated to determine sensitization potential.
Normal human adult epidermal keratinocytes (HEK) were cultured as described above for the cytoxicity evaluation. […] The cell lysates were collected, and IL-18 was quantified using Human IL-18 ELISA Kit (Catalog #7620, produced by MBL International Co., Woburn, Mass., USA). […] Fold changes of IL-18 levels between test articles and respective vehicle controls were calculated and compared to pPD. […]

Nc1ccc(N)cc1 [benchmark sensitizer, para-phenylenediamine]
IL18 Maximum fold change vs vehicle control: 7.8 fold) | IL18 Maximum fold change vs vehicle control (listed as para-phenylenediamine (pPD)): significantly induced IL-18
